In patent publication US5561047A, “Method of identifying effectors of integrin activation” (priority 1994, dated 1996):
Where two headings read alike, the source gives them in different places. Each block holds one compound with its values, some of them ahead of it.

Tests used:
[1] = tested on: platelet aggregation and secretion; settings: Sless, Physiol. Rev. 1989; cited from earlier work
[2] = biological target: T1, integrin αIIb β3 (washed human platelets) (Homo sapiens, UniProt P05106+P08514); assay: integrin activation ELISA: biotin-PAC1 binding to intact washed platelets; type: cell-based; settings: for extent of biotin-PAC1 binding at maximal agonist concentrations: comparison of thrombin, PMA and ADP; for αIIb β3 activation: physiological agonists
T1 construct: endogenous in cells; host or cells: washed human platelets from whole blood of healthy volunteers
Experimental: Platelet incubations were carried out in wells of Falcon flexible polyvinyl chloride (PVC) microtitre plates with 96 U-bottom wells (Becton Dickinson, San Jose, Calif.). ELISA reactions were carried out in 96 well Immulon II polystyrene plates (Dynatech Laboratories, Inc., Chantilly, Va.) that had been precoated with streptavidin. This was accomplished by addition of 75 μl/well of streptavidin (1.25 μg/ml) for 16 hours at 4°, followed by washing four times with 200 μl of 1% TWEEN(polyethylenesorbit -20 in phosphate-buffered saline (PBS), pH 7.4, blocking with 200 μl of 1% bovine serum albumin in PBS for 2 hours at room temperature, and washing again. These plates could be stored at -20° for at least 3 months prior to use in the assay.
(§1) Whole blood was obtained from healthy, drug-free volunteers and anticoagulated with a 1:6 volume of acid-citrate-dextrose formula A. Platelet-rich plasma was collected by centrifugation at 180×g for 20 minutes, incubated for 5 minutes with 1 μM prostaglandin E1 and 1 unit/ml apyrase, then sedimented at 500×g for 10 minutes and resuspended in 5 ml of 2 wash buffer containing 20 mM HEPES, 0.15 M NaCl, 0.1% glucose, 1 μM prostaglandin E1, 1 unit/ml apyrase, and 1.5 mM EDTA, pH 7.4. After another centrifugation at 500×g for 20 minutes, the platelets were finally resuspended to 5.8×10^8 /ml in an incubation buffer containing 137 mM NaCl, 2.7 mM KCl, 1.0 mM MgCl2, 3.3 mM NaH2 PO4, 0.1% glucose, 0.1% bovine serum albumin, and 20 mM HEPES, pH 7.35.
Fifty-five μl of washed platelets were added in triplicate to wells of PVC plates containing 10 μl of the desired agonist (or the activation inhibitor, PGI2) and 25 μl of the desired inhibitory test compound (or the equivalent vehicle as a diluent). After 10 minutes at 37° without shaking, 10 μl of biotin-PAC1 were added to achieve a final antibody concentration of 0.5 μg/ml and a platelet concentration of 3.2×10^8 /ml. After a further 15 minutes incubation at room temperature without shaking, the microtitre plates were centrifuged at 2800 rpm for 10 minutes to sediment the platelets, conditions under which essentially all of the platelets were removed from the supernatant.
After platelet centrifugation, 50 μl of supernatant from each well were transferred to corresponding wells of streptavidin-coated plates and incubated for 30 minutes at room temperature. Each well was then washed four times with 200 μl of PBS/Tween, followed by addition of 50 μl of goat anti-mouse IgM-horseradish peroxidase conjugate (1:1500). After incubation for 60 minutes at room temperature, the plates were again washed four times with PBS/Tween, followed by addition of 50 μl of a reaction mixture containing 1 mg/ml o-phenylenediamine dihydrochloride and 0.012% H2 O2 in 0.1 M citrate buffer, pH 4.5. After a final 20 minutes at room temperature, reactions were stopped with 25 μl of 4 N HCl, and formation of the reaction product was measured at 490 nm in a THERMOmax microplate reader (Molecular Devices, Inc.)
Triplicate aliquots of washed human platelets were incubated in microtitre wells at a final volume of 90 μl in the presence of a platelet agohist such as PMA or thrombin, in order to convert αIIb β3 into a high affinity, ligand-competent state. Compounds that were being tested for their ability to inhibit αIIb β3 were also added to some of the wells at this stage. Other wells contain PGI2 (0.2 μM), a potent platelet activation inhibitor, to purposely maintain αIIb β3 in a low-affinity state. After 10 minutes at 37°, 10 μl of a subsaturating and limiting concentration of biotin-PAC1 was added to each well and the incubation was continued for an additional 15 minutes at room temperature.
The microtitre plates were then centrifuged at 2800 rpm for 10 minutes in order to sediment the platelets. […] In contrast, platelets in wells containing an agonist have bound biotinPAC1. […]

[3] = tested on: "internal" pool of activated αIIb β3; settings: unstirred platelets; Woods et al. 1986; cited from earlier work
αIIb β3 = settings: PMA 0.2 μM; Shattil et al., Blood 1987; cited from earlier work
[4] = tested on: integrin αIIb β3 (washed platelets); assay: flow cytometry of FITC-PAC1 binding to washed platelets; type: cell-based, human; settings: washed platelets stimulated for 15 minutes with 0.2 mM phorbol myristate acetate; representative experiment
Experimental: as §1
Assay variables in each step of the assay were examined systematically. […] Flow cytometry was used to assess the activation state of the platelets using FITC-PAC1 as the activation marker (Shattil et al., Blood 1987, 70, 307). No activation of washed platelets was detected. In a representative experiment, mean FITC-PAC1 binding to washed platelets was 22 arbitrary fluorescence units, a value identical to that obtained with platelets in whole blood or in platelet-rich plasma. FITC-PAC1 binding to washed platelets that had been stimulated for 15 minutes with 0.2 mM phorbol myristate acetate amounted to 1,776 fluorescence units.

protein kinase C = settings: Toullec et al. 1991; cited from earlier work

T1 sequence (P08514 32-887 limits assumed): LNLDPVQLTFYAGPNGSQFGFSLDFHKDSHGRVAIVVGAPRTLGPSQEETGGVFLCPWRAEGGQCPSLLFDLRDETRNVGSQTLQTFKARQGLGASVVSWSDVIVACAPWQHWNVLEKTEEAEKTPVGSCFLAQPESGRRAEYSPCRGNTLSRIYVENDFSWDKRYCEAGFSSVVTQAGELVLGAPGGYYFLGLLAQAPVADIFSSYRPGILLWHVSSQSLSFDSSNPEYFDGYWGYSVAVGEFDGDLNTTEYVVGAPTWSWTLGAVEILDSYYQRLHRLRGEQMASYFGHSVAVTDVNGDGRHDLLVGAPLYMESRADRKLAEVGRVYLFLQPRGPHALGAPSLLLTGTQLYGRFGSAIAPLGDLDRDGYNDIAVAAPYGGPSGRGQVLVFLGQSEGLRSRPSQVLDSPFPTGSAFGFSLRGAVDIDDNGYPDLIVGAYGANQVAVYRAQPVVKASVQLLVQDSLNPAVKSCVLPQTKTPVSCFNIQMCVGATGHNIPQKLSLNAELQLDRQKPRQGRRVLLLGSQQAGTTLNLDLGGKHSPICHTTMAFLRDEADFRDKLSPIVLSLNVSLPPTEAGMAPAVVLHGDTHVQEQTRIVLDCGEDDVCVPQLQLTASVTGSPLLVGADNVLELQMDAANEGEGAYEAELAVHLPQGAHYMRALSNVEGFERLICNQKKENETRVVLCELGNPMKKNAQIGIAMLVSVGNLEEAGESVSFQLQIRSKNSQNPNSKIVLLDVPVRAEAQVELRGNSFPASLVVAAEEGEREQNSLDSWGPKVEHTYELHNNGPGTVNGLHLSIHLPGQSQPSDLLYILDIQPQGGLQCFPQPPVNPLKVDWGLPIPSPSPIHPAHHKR
T1 sequence (P08514 891-1039 limits assumed): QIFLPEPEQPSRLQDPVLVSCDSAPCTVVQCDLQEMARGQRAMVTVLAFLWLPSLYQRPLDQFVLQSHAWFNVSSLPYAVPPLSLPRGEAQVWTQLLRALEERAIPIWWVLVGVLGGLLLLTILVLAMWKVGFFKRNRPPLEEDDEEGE
T1 sequence (P05106 27-788): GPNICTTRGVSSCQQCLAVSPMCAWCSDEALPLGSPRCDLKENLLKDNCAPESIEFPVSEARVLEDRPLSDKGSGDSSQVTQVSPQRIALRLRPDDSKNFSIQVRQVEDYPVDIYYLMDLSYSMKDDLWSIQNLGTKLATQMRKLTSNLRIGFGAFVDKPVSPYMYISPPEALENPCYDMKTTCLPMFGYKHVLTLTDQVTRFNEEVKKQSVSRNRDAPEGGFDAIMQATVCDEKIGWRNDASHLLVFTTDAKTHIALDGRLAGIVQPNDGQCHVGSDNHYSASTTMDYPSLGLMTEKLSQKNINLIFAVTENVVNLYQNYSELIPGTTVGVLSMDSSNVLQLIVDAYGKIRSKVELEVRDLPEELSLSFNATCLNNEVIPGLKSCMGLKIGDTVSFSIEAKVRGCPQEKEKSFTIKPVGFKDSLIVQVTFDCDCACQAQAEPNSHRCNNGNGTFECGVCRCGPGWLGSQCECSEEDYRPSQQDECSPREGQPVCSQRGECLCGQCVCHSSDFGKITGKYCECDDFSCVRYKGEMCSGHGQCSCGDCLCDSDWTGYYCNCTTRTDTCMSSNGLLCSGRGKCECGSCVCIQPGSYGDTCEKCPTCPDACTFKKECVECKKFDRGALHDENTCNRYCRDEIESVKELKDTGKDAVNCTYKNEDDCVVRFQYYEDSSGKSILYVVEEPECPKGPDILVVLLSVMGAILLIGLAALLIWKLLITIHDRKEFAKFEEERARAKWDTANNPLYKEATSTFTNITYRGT

Compound: O=CC[C@@H](O)[C@H](O)[C@H](O)CO [2-Deoxyglucose]
inhibition of platelet aggregation and secretion [1]: block both platelet aggregation and secretion

Compound: Nc1ncnc2c1ncn2[C@@H]1O[C@H](COP(=O)(O)OP(=O)(O)O)[C@@H](O)[C@H]1O [ADP]
EC50 [2]: ~1 µM | concentration of maximal αIIb β3 activation ([2]; ADP): 10 µM | extent of biotin-PAC1 binding at maximal agonist concentrations [2]: less | αIIb β3 activation [2]: caused αIIb β3 activation in a dose-dependent manner

biotin-PAC1 bound to platelets in wells containing PGI2 ([2]; PGI2 0.2 μM): do not have bound biotin-PAC1 | depletion of PAC1 from supernatant ([2]; PGI2-treated, unactivated platelets, any platelet concentration): No depletion of PAC1 was observed
Compound: CCCCC[C@H](O)/C=C/[C@@H]1[C@H]2C/C(=C/CCCC(=O)O)O[C@H]2C[C@H]1O [PGI2, prostaglandin I2]

Compound: CCCCCCCCCCCCCC(=O)O[C@@H]1[C@@H](C)[C@@]2(O)[C@@H](C=C(CO)C[C@]3(O)C(=O)C(C)=C[C@@H]23)[C@@H]2C(C)(C)[C@]12OC(C)=O [PMA, phorbol myristate acetate]
stimulation of surface expression of an internal pool of activated αIIb β3 [3]: stimulate the surface expression | activation of αIIb β3 in conventional assays (αIIb β3): maximal activation of αIIb β3 | activation of αIIb β3 in the integrin activation ELISA ([2]; PMA 0.2 μM): maximal activation of αIIb β3 | amount of biotin-PAC1 remaining in supernatant ([2]; PMA 0.2 μM, 0.5 μg/ml biotin-PAC1, increasing number of activated platelets): decreased as the number of activated platelets in the well increased | extent of biotin-PAC1 binding at maximal agonist concentrations [2]: similar | mean FITC-PAC1 binding [4]: 1,776 fluorescence units

Compound: RGDS
inhibition of biotin-PAC1 binding to activated platelets ([2]; activated platelets): inhibited in a dose-dependent manner

Compound: RGES
inhibition of biotin-PAC1 binding to activated platelets ([2]; activated platelets): ineffective

Compound: antimycin A
inhibition of platelet aggregation and secretion [1]: block both platelet aggregation and secretion

Compound: bisindolylmaleimide
concentration maximally effective on protein kinase C in platelets (protein kinase C): 10 to 20 µM | concentration of complete inhibition of biotin-PAC1 binding ([2]; PMA-stimulated platelets): 20 µM | IC50 ([2]; PMA-stimulated platelets, read-out: IC50, inhibition of biotin-PAC1 binding): ~1 µM

IC50 ([2]; activated platelets, read-out: IC50, inhibition of biotin-PAC1 binding to activated platelets): 0.4 µM
Compound: fibrinogen

extent of biotin-PAC1 binding at maximal agonist concentrations [2]: similar | concentration of maximal αIIb β3 activation ([2]; thrombin): 0.1 U/ml
Compound: thrombin
stimulation of surface expression of an internal pool of activated αIIb β3 [3]: stimulate the surface expression | αIIb β3 activation [2]: caused αIIb β3 activation in a dose-dependent manner
